# According to US5750521A, “Mercaptoacetylamide disulfide derivatives useful as inhibitors of enkephalinase and ACE” (Hoechst Marion Roussel Inc., priority 1996, dated 1998):
# Biological target: T1, ACE, rat kidney preparations (Rattus norvegicus, UniProt P47820)
# T1 construct: compound- or vehicle-dosed rat kidney preparations; from tissue; host or cells: kidney of male Sprague-Dawley rats
# T1 sequence (P47820 36-1313): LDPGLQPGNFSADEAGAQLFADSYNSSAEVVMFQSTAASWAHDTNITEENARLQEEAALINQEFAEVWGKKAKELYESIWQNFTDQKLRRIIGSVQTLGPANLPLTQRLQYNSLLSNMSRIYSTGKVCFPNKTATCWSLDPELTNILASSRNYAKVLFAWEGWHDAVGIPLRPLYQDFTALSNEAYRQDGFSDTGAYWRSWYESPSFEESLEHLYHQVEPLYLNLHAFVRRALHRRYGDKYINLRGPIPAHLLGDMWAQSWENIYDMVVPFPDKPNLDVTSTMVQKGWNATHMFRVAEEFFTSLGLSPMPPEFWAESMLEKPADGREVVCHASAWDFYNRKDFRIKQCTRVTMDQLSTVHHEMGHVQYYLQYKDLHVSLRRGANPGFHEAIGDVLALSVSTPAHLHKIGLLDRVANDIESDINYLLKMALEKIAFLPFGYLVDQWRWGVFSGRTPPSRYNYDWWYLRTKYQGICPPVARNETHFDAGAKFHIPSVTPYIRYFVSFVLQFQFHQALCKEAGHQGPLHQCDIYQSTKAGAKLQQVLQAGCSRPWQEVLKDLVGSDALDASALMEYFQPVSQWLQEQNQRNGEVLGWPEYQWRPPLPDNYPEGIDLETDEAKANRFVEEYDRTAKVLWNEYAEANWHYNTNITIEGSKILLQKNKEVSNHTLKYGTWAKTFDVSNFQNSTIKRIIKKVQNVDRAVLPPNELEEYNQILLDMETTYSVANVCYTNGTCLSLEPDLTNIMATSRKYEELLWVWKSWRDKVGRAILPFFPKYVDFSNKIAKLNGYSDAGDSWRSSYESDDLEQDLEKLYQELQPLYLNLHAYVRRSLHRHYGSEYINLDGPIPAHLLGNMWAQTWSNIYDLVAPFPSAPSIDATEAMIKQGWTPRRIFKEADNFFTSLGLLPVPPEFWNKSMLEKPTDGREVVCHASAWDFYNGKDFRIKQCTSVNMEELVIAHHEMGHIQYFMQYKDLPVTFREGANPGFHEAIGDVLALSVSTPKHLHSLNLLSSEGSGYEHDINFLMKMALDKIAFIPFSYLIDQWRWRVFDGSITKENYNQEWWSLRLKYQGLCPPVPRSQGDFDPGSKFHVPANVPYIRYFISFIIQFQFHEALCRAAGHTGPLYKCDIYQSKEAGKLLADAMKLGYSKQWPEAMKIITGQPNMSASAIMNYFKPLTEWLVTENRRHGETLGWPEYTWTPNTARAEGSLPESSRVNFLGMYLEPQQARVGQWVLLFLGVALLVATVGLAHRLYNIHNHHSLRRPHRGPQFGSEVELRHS
# Experiment: radiometric ACE assay with tritiated hippuryl-glycyl-glycine
# Format: biochemical
# Conditions: 1 μM enalaprilat; compound- or vehicle-dosed rat kidney preparations
smiles,measurement,value
C[C@H](N[C@@H](CCc1ccccc1)C(=O)O)C(=O)N1CCC[C@H]1C(=O)O [enalaprilat],inhibition of radioactive product formation,Complete inhibition
